Earlier results as cited in patent US8644910B2, “Imaging protocols” (Biosensors International Group, Ltd., priority 2005, dated 2014).
Like-named read-outs stand apart in the source and are kept apart here.

Key:
[1] = not given; remark: listed apart in the source
[2] = stored at 15-25° C. before and after reconstitution
[3] = administration to lactating women
[4] = prepared product
[5] = 600 MBq, common bone scan

In the case of `[99Tc].[C-]#[N+]CC(C)(C)OC.[C-]#[N+]CC(C)(C)OC.[C-]#[N+]CC(C)(C)OC.[C-]#[N+]CC(C)(C)OC.[C-]#[N+]CC(C)(C)OC.[C-]#[N+]CC(C)(C)OC` [^99mTc-Sestamibi, technetium-99m-methoxyisobutylisonitrile], the Myocardial uptake (at exercise) is given as 1.5 % of the injected dose, the Myocardial uptake (at rest) is given as 1.2 % of the injected dose and the “cleared through the feces” value ([1]; in 48 hours) is given as “approximately thirty-three”. The “excreted in the urine” value ([1]; in vivo) was “Twenty-seven”, the “major pathway for clearance” value ([1]; in vivo) was “hepatobiliary system” and the metabolism ([1]; in vivo) was “excreted without any evidence of metabolism”. For the same compound, the “time for use after preparation” value [2] was at most 6 h.
For `N=C(N)NCc1cccc([131I])c1` [^123I-metaiodobenzylguanidine, metaiodobenzylguanidine], the “breast feeding interruption advised” value [3] is given as “brief interruption (hours to days)”.
In the case of “Technetium Tc 99m Arcitumomab (CEA-Scan)”, the shelf life [4] is listed as at most 4 h.
In the case of `O=P(O)(O)CP(=O)(O)O` [^99mTc-MDP, medronate, metal not drawn], the effective dose [5] is listed as 3 mSv.
For `[Na+].[O]=[Tc](=[O])(=[O])[O-]` [^99mTc-pertechnetate, Sodium pertechnetate], the “breast feeding interruption advised” value [3] is listed as “brief interruption (hours to days)”.
For `[Cl][201Tl]` [^201Tl, Tl-201-thallous chloride], the “breast feeding interruption advised” value [3] is listed as “brief interruption (hours to days)”.
For `[I-].[Na+]` [^123I-sodium iodide, sodium iodide], the “breast feeding interruption advised” value [3] is given as “Complete cessation”.
In the case of `O=C([O-])CC(O)(CC(=O)[O-])C(=O)[O-].[Ga+3]` [^67Ga-citrate, Gallium Citrate], the “breast feeding interruption advised” value [3] is given as “Complete cessation”.
